Source: ChEMBL document CHEMBL5352429, “Designed symmetrical β-hairpin peptides for treating multidrug-resistant salmonella typhimurium infections” (Eur J Med Chem, 2022)
≈ marks a conversion by molar mass, not a printed value. Calls of active or inactive are those of the source. No cut-off for these calls is given here. Peptide text beside a SMILES is read from it.

Columns and labels:
[1] = tested on: Staphylococcus aureus; experiment: Antibacterial activity against Staphylococcus aureus ATCC 29213 incubated overnight by standard microtiter dilution method; type: functional
[2] = tested on: Staphylococcus aureus; experiment: Antibacterial activity against methicillin-resistant Staphylococcus aureus ATCC 43300 incubated overnight by standard microtiter dilution method; type: functional
[3] = tested on: Staphylococcus epidermidis; experiment: Antibacterial activity against methicillin-resistant Staphylococcus epidermidis ATCC 12228 incubated overnight by standard microtiter dilution method; type: functional
[4] = tested on: Enterococcus faecalis; experiment: Antibacterial activity against Enterococcus faecalis ATCC 29212 incubated overnight by standard microtiter dilution method; type: functional
[5] = tested on: Escherichia coli; experiment: Antibacterial activity against Escherichia coli O157:H7 CICC 21530 incubated overnight by standard microtiter dilution method; type: functional
[6] = tested on: Salmonella paratyphi; experiment: Antibacterial activity against Salmonella paratyphi A CICC 21501 incubated overnight by standard microtiter dilution method; type: functional, Salmonella enterica subsp. enterica serovar Paratyphi A; details: Salmonella enterica
[7] = tested on: Salmonella enterica subsp. enterica serovar Paratyphi B; experiment: Antibacterial activity against Salmonella paratyphi B CICC 21495 incubated overnight by standard microtiter dilution method; type: functional
[8] = Antibacterial activity against Salmonella paratyphi C CICC 21512 incubated overnight by standard microtiter dilution method; type: functional, Salmonella enterica subsp. enterica serovar Paratyphi C; details: Salmonella enterica
[9] = Antibacterial activity against Salmonella enterica subsp. enterica serovar Choleraesuis ATCC 13312 incubated overnight by standard microtiter dilution method; type: functional
[10] = Antibacterial activity against Salmonella enterica subsp. enterica serovar Choleraesuis CICC 21493 incubated overnight by standard microtiter dilution method; type: functional
[11] = tested on: Salmonella enteritidis; experiment: Antibacterial activity against Salmonella enteritidis CICC 21527 incubated overnight by standard microtiter dilution method; type: functional, Salmonella enterica subsp. enterica serovar Enteritidis; details: Salmonella enterica
[12] = Antibacterial activity against Salmonella wandsworth CICC 21504 incubated overnight by standard microtiter dilution method; type: functional, Salmonella enterica subsp. enterica serovar Wandsworth; details: Salmonella enterica
[13] = tested on: Salmonella typhimurium; experiment: Antibacterial activity against Salmonella typhimurium CICC 21483 incubated overnight by standard microtiter dilution method; type: functional, Salmonella enterica subsp. enterica serovar Typhimurium; details: Salmonella enterica
[14] = tested on: Salmonella typhimurium; experiment: Antibacterial activity against Salmonella typhimurium CICC 21913 incubated overnight by standard microtiter dilution method; type: functional, Salmonella enterica subsp. enterica serovar Typhimurium; details: Salmonella enterica
[15] = Antibacterial activity against Salmonella blockley CICC 21489 incubated overnight by standard microtiter dilution method; type: functional, Salmonella enterica subsp. enterica serovar Blockley; details: Salmonella enterica
[16] = Antibacterial activity against Salmonella dublin CICC 21497 incubated overnight by standard microtiter dilution method; type: functional, Salmonella enterica subsp. enterica serovar Dublin; details: Salmonella enterica
[17] = tested on: Salmonella typhimurium; experiment: Antibacterial activity against Salmonella typhimurium DT104 ATCC 700408 incubated overnight by standard microtiter dilution method; type: functional, Salmonella enterica subsp. enterica serovar Typhimurium; details: Salmonella enterica
[18] = tested on: Candida albicans; experiment: Antifungal activity against Candida albicans ATCC 10231 incubated overnight by standard microtiter dilution method; type: functional
[19] = tested on: Erythrocyte; experiment: Hemolytic activity in human Red blood cells assessed as hemolysis incubated for 1 hrs by absorbance based microplate reader analysis; type: toxicity, cell-based
[20] = tested on: Salmonella typhimurium; experiment: Antibacterial activity against Salmonella typhimurium DT104 in the presence of NaCl by MH broth based assay; type: functional, Salmonella enterica subsp. enterica serovar Typhimurium; details: Salmonella enterica
[21] = tested on: Salmonella typhimurium; experiment: Antibacterial activity against Salmonella typhimurium DT104 in the presence of KCl by MH broth based assay; type: functional, Salmonella enterica subsp. enterica serovar Typhimurium; details: Salmonella enterica
[22] = tested on: Salmonella typhimurium; experiment: Antibacterial activity against Salmonella typhimurium DT104 in the presence of NH4Cl by MH broth based assay; type: functional, Salmonella enterica subsp. enterica serovar Typhimurium; details: Salmonella enterica
[23] = tested on: Salmonella typhimurium; experiment: Antibacterial activity against Salmonella typhimurium DT104 in the presence of CaCl2 by MH broth based assay; type: functional, Salmonella enterica subsp. enterica serovar Typhimurium; details: Salmonella enterica
[24] = tested on: Salmonella typhimurium; experiment: Antibacterial activity against Salmonella typhimurium DT104 in the presence of MgCl2 by MH broth based assay; type: functional, Salmonella enterica subsp. enterica serovar Typhimurium; details: Salmonella enterica
[25] = tested on: Salmonella typhimurium; experiment: Antibacterial activity against Salmonella typhimurium DT104 in the presence of FeCl3 by MH broth based assay; type: functional, Salmonella enterica subsp. enterica serovar Typhimurium; details: Salmonella enterica
[26] = tested on: Salmonella typhimurium; experiment: Antibacterial activity against Salmonella typhimurium DT104 in the presence 25% inactivated mouse serum by MH broth based assay; type: functional, Salmonella enterica subsp. enterica serovar Typhimurium; details: Salmonella enterica
[27] = tested on: Salmonella typhimurium; experiment: Antibacterial activity against Salmonella typhimurium DT104 in the presence 50% inactivated mouse serum by MH broth based assay; type: functional, Salmonella enterica subsp. enterica serovar Typhimurium; details: Salmonella enterica
[28] = Hemolytic activity in human Red blood cells assessed as hemolysis at 128 ug/ml incubated for 1 hrs by absorbance based microplate reader analysis relative to control; type: toxicity, cell-based, Erythrocyte; details: red blood cells (erythrocytes), at 128 µg/mL, read-out: Activity
[29] = Cytotoxicity against mouse RAW264.7 cells assessed as cell viability at 128 ug/ml incubated for 24 hrs by MTT assay; type: toxicity, cell-based; details: at 128 µg/mL, read-out: Activity
[30] = tested on: Salmonella typhimurium; experiment: Antibacterial activity against multi-drug resistant Salmonella typhimurium DT104 assessed as inhibition of bacterial growth at 0.5 to 2 times of MIC by MH agar based serial dilution method; type: functional, organism-based; details: Salmonella enterica subsp. enterica serovar Typhimurium, time <= 120.0 min, TDE = time-dependent effect
[31] = tested on: Salmonella typhimurium; experiment: Antibacterial activity against multi-drug resistant Salmonella typhimurium DT104 assessed as inhibition of bacterial growth measured upto 120 mins by MH agar based serial dilution method; type: functional, organism-based; details: Salmonella enterica subsp. enterica serovar Typhimurium
[32] = tested on: Lipopolysaccharide (LPS); experiment: Displacement of BODIPY-TR-cadaverine from Salmonella typhimurium LPS assessed as increase in fluorescence intensity by fluorescence spectrophotometric analysis; details: Salmonella enterica subsp. enterica serovar Typhimurium; dose 0.25-8 µg/ml
[33] = tested on: RAW264.7; experiment: Inhibition of LPS-stimulated NO production in mouse RAW264.7 cells incubated for 24 hrs by Griess reagent based analysis; type: functional, cell-based; details: dose 1-128 µg/ml
[34] = tested on: RAW264.7; experiment: Inhibition of LPS-stimulated TNF-alpha production in mouse RAW264.7 cells at 1 to 128 ug/ml incubated for 24 hrs by ELISA analysis; type: functional, cell-based; details: dose 1-128 µg/ml
[35] = tested on: RAW264.7; experiment: Inhibition of LPS-stimulated IL-1beta production in mouse RAW264.7 cells at 1 to 128 ug/ml incubated for 24 hrs by ELISA analysis; type: functional, cell-based; details: dose 1-128 µg/ml
[36] = tested on: RAW264.7; experiment: Inhibition of LPS-stimulated IL-8 production in mouse RAW264.7 cells at 1 to 128 ug/ml incubated for 24 hrs by ELISA analysis; type: functional, cell-based; details: dose 1-128 µg/ml
[37] = tested on: Cell membrane; experiment: Disruption of membrane integrity in Salmonella typhimurium DT104 assessed as increase in fluorescence intensity at 0.5 to 2 times of MIC incubated for 15 mins by PI staining based flow cytometric analysis; type: subcellular; details: Salmonella enterica subsp. enterica serovar Typhimurium

CC(C)C[C@H](NC(=O)[C@H](CCCCN)NC(=O)[C@H](CC(C)C)NC(=O)[C@H](CCCCN)NC(=O)[C@H](CC(C)C)NC(=O)[C@H](CCCCN)NC(=O)[C@H](CS)NC(=O)CNC(=O)[C@H](CO)NC(=O)[C@H](CCCCN)NC(=O)[C@@H](NC(=O)[C@H](CS)NC(=O)[C@H](CCCCN)NC(=O)[C@H](CC(C)C)NC(=O)[C@H](CCCCN)NC(=O)[C@H](CC(C)C)NC(=O)[C@H](CCCCN)NC(=O)[C@@H](N)CC(C)C)[C@@H](C)O)C(N)=O (H-LKLKLKCTKSGCKLKLKL-NH2)
MIC [1]: > 128 µg/mL | MIC [2]: > 128 µg/mL | MIC [3]: 32 µg/mL (≈ 15.6 µM) | MIC [4]: 64 µg/mL (≈ 31.3 µM) | MIC [5]: 8 µg/mL (≈ 3.91 µM) | MIC [6]: > 128 µg/mL | MIC [7]: 4 µg/mL (≈ 1.96 µM) | MIC [8]: 4 µg/mL (≈ 1.96 µM) | MIC [9]: 4 µg/mL (≈ 1.96 µM) | MIC [10]: 128 µg/mL (≈ 62.6 µM) | MIC [11]: 64 µg/mL (≈ 31.3 µM) | MIC [12]: 128 µg/mL (≈ 62.6 µM) | MIC [13]: 128 µg/mL (≈ 62.6 µM) | MIC [14]: > 128 µg/mL | MIC [15]: 128 µg/mL (≈ 62.6 µM) | MIC [16]: 32 µg/mL (≈ 15.6 µM) | MIC [17]: 64 µg/mL (≈ 31.3 µM) | MIC [18]: 128 µg/mL (≈ 62.6 µM) | MHC [19]: 64 µg/mL | MIC [20]: > 128 µg/mL | MIC [21]: > 128 µg/mL | MIC [22]: > 128 µg/mL | MIC [23]: > 128 µg/mL | MIC [24]: > 128 µg/mL | MIC [25]: > 128 µg/mL | MIC [26]: > 128 µg/mL | MIC [27]: > 128 µg/mL | hemolysis at 1 h, 128 ug/ml [28]: 16.4% | viability at 24 h, 128 ug/ml [29]: 14.2% | Activity [30]: Tde | Activity [31]: Dose-Dependent Effect | Activity [32]: Dose-Dependent Effect | inhibition [33]: Dose-Dependent Effect | inhibition [34]: Active | inhibition [35]: Active | inhibition [36]: Active | Activity [37]: Active
